Data: patent US20240269139A1, “COMPOUNDS FOR TARGETED PROTEIN DEGRADATION OF KINASES” (DANA-FARBER CANCER INSTITUTE, INC., priority 2020, published 2024)
Read-outs that look alike come from different tables or passages of the source.

Experiments:
Type in all cases: cell-based
[1] = biological target: T1, protein kinases (human kinome) (Homo sapiens, UniProt Q53H12); details: direction down
T1 sequence (Q53H12 1-422): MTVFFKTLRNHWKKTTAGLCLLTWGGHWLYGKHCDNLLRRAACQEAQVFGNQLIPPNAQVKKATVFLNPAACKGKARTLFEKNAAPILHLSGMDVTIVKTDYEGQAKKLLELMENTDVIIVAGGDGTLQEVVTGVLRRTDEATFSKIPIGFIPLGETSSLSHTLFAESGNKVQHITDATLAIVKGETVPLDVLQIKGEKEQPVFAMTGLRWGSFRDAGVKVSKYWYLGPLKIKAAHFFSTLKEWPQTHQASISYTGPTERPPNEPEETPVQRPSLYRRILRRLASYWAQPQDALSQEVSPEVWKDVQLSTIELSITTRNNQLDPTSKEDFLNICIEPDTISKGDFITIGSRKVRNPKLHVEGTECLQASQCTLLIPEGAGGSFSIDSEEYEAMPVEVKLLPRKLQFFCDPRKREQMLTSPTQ

[2] = biological target: protein kinases (human kinome) (Homo sapiens, UniProt P41240); details: experiment wp071
[3] = biological target: protein kinases (human kinome) (Homo sapiens, UniProt P42684)
Chain of protein kinases (human kinome) (Homo sapiens, UniProt P42684) (P42684 whole entry): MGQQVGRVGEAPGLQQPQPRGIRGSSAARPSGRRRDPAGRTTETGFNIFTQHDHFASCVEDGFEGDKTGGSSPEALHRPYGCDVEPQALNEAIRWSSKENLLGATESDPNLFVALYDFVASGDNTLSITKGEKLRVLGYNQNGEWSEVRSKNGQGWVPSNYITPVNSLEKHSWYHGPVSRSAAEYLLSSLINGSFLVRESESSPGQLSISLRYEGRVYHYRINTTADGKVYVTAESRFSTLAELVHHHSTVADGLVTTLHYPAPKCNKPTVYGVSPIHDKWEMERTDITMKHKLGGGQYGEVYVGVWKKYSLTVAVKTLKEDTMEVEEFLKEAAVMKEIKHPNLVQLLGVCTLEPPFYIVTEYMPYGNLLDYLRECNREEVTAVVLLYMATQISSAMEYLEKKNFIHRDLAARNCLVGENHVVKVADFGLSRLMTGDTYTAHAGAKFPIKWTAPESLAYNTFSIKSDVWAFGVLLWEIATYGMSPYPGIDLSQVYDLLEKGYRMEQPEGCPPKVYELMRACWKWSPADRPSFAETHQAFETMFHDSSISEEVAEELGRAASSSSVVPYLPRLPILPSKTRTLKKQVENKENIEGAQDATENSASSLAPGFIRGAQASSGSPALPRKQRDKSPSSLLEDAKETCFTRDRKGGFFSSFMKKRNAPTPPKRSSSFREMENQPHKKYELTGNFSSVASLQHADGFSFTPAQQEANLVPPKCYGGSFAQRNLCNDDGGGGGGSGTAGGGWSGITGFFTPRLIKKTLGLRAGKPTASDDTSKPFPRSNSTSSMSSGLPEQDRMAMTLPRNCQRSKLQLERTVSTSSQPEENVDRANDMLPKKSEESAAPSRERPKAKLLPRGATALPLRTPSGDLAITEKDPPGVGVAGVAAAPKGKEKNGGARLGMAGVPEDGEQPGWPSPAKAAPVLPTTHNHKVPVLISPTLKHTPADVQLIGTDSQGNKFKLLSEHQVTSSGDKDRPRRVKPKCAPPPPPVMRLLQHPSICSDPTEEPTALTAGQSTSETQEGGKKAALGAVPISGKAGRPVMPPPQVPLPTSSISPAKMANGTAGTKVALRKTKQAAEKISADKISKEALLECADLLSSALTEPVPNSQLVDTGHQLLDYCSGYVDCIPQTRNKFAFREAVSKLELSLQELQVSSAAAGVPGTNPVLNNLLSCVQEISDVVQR

Chain of protein kinases (human kinome) (Homo sapiens, UniProt P41240) (P41240 whole entry): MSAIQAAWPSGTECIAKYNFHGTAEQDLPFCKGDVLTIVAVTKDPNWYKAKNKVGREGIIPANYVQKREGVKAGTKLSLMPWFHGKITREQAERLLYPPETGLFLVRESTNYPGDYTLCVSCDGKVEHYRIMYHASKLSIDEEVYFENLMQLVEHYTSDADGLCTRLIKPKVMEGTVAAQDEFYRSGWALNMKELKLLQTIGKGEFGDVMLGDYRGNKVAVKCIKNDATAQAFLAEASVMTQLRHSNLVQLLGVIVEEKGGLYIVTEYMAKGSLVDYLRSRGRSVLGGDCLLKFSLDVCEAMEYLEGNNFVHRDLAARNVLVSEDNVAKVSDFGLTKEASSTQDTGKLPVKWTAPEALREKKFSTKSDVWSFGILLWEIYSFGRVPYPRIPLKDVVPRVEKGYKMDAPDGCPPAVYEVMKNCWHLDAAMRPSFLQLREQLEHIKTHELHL

Structure (SMILES)	logFC AGK (Q53H12) ([1]; Experiment wp071)	logFC AGK (Q53H12) ([1]; Experiment wp076)	logFC of CSK ([2]; Accession P41240)	logFC CSK ([2]; CSK (P41240), down)	logFC ([3]; ABL2 (P42684) protein abundance, degrader vs DMSO, down)	logFC ABL2 (P42684) ([3]; experiment wp071)
Cc1cnc(Nc2ccc(N3CCN(CCOCCOCCNC(=O)COc4cccc5c4C(=O)N(C4CCC(=O)NC4=O)C5=O)CC3)cc2)nc1Nc1cccc(S(=O)(=O)NC(C)(C)C)c1 (stereo not shown) [JWG.118]	−0.5599	–	–	–	–	–
CNC(=O)c1ccccc1Nc1cc(Nc2ccc(N3CCN(CCOCCOCCNC(=O)CNc4cccc5c4C(=O)N(C4CCC(=O)NC4=O)C5=O)CC3)cc2OC)ncc1C(F)(F)F (stereo not shown) [MFH.5.103.1]	–	−0.3672	–	–	–	–
Nc1ncnc2c1c(-c1ccc(Oc3ccccc3)cc1)nn2[C@H]1CC[C@H](N2CCN(CCOCCNC(=O)CNc3cccc4c3C(=O)N(C3CCC(=O)NC3=O)C4=O)CC2)CC1 (stereo partly shown) [SB1.G.181]	−0.3991	–	−3.229	−3.229	−2.405	−2.405
